In US7153869B2, “Substituted amino acids as erythropoietin mimetics” (priority 1998, dated 2006):
Like-named read-outs stand apart in the source and are kept apart here.

Target: T1, EBP-Ig (N-terminal 225 amino acids of the human EPO receptor joined to an Ig heavy chain) (Homo sapiens, UniProt P19235)
T1 construct: Ig heavy chain (fusion partner); made in house; host or cells: NSO cells (secreted into conditioned media)
T1 sequence (P19235 25-250 limits assumed): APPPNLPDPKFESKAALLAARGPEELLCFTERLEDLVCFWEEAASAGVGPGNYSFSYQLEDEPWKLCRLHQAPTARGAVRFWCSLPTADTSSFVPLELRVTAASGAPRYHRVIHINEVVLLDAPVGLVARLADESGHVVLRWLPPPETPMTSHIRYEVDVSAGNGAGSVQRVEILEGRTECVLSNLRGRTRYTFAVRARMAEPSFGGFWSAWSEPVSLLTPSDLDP
Experiment: Inhibition of [125I]EPO binding to immobilized EBP-Ig (EPO binding protein-Ig), scintillation Flash plate competition assay
Conditions: for IC30 μM (Inhibition of EPO binding to EBP-Ig): 0–500 μM test compound; for % inh @ 50 μM (Inhibition of EPO binding to EBP-Ig): 50 μM test compound, average % inhibition

[1] = read-out: % inh @ 50 μM (Inhibition of EPO binding to EBP-Ig)
[2] = read-out: EPO/EBP-Ig % inh @ 50 μM, Table 11, 50 μM

COC(=O)[C@H](COC(C)(C)C)NC/C=C/c1cccc(Oc2cccc(C(F)(F)F)c2)c1 [compound 355]
EPO/EBP-Ig % inh @ 50 μM (50 μM compound, Table 20A): 22%

COC(=O)[C@H](COC(C)(C)C)NC/C=C/c1cccc(Oc2ccc(C(C)(C)C)cc2)c1 [compound 356]
EPO/EBP-Ig % inh @ 50 μM (50 μM compound, Table 20A): 23%

CC(C)(C)OC[C@H](NC/C=C/c1cccc(Oc2cccc(C(F)(F)F)c2)c1)C(=O)O [compound 357]
EPO/EBP-Ig % inh @ 50 μM (50 μM compound, Table 20A): 12%

C[C@H](O)[C@H](NC/C=C/c1ccc(C(F)(F)F)cc1)C(=O)O.O=C(O)C(F)(F)F [compound 358]
EPO/EBP-Ig % inh @ 50 μM (50 μM compound): 0%

COC(=O)[C@H](Cc1ccccc1)NC/C=C/c1ccccc1 [compound 360]
EPO/EBP-Ig % inh @ 50 μM (50 μM compound): 18%

CC(=O)O.COC(=O)c1cccc(/C=C/CN[C@@H](Cc2ccccc2)C(=O)OC)c1 [compound 361]
EPO/EBP-Ig % inh @ 50 μM (50 μM compound): 24%

O=C(O)C(F)(F)F.O=C(O)[C@H](Cc1ccc(O)cc1)NC/C=C/c1ccc(C(F)(F)F)cc1 [compound 362]
EPO/EBP-Ig % inh @ 50 μM (50 μM compound): 0%

COC(=O)c1cccc(C=CCNC(Cc2ccc(OC)cc2)C(=O)OC)c1 (stereo not shown) [compound 363]
IC30 μM (Inhibition of EPO binding to EBP-Ig) (0.5 nM [125I]EPO): 35 µM | inhibition at 50 µM [1]: 33% | inhibition at 50 µM (read-out: EPO/EBP-Ig % inh @ 50 μM, 50 μM compound): 33% | IC50 (read-out: IC50, μM (Inhibition of EPO binding to EBP-Ig), 0.5 nM [125I]EPO, concentration reducing corrected total binding to 50%): 220 µM

COC(=O)[C@H](Cc1c[nH]c2ccccc12)NC/C=C/c1ccccc1 [compound 364]
EPO/EBP-Ig % inh @ 50 μM (50 μM compound): 16%

CSCC[C@H](NC/C=C/c1ccc(C(F)(F)F)cc1)C(=O)O.O=C(O)C(F)(F)F [compound 365]
EPO/EBP-Ig % inh @ 50 μM (50 μM compound): 0%

CC(=O)O.COC(=O)CC(NCC=Cc1cccc(C(=O)OC)c1)C(=O)OC (stereo not shown) [compound 366]
IC30 μM (Inhibition of EPO binding to EBP-Ig) (0.5 nM [125I]EPO): 65 µM | EPO/EBP-Ig % inh @ 50 μM (50 μM compound): 38% | % inh @ 50 μM (Inhibition of EPO binding to EBP-Ig) (0.5 nM [125I]EPO): 38%

NC(=O)C[C@H](NC/C=C/c1ccc(C(F)(F)F)cc1)C(=O)O.O=C(O)C(F)(F)F [compound 367]
EPO/EBP-Ig % inh @ 50 μM (50 μM compound): 0%

CC(=O)O.COC(=O)c1cccc(C=CCNC(CSCc2ccccc2)C(=O)OC)c1 (stereo not shown) [compound 368]
IC30 μM (Inhibition of EPO binding to EBP-Ig) (0.5 nM [125I]EPO): 90 µM | EPO/EBP-Ig % inh @ 50 μM (50 μM compound): 40% | % inh @ 50 μM (Inhibition of EPO binding to EBP-Ig) (0.5 nM [125I]EPO): 40%

CC(C)C[C@H](NC/C=C/c1ccc(C(F)(F)F)cc1)C(=O)O.O=C(O)C(F)(F)F [compound 369]
EPO/EBP-Ig % inh @ 50 μM (50 μM compound): 12%

CC(C)[C@H](NC/C=C/c1ccc(C(F)(F)F)cc1)C(=O)O.O=C(O)C(F)(F)F [compound 370]
EPO/EBP-Ig % inh @ 50 μM (50 μM compound): 0%

CC(=O)O.COC(=O)c1cccc(C=CCNC(C(=O)OC)C(C)C)c1 (stereo not shown) [compound 371]
EPO/EBP-Ig % inh @ 50 μM (50 μM compound): 16%

COC(=O)[C@H](C)NC/C=C/c1ccccc1 [compound 372]
EPO/EBP-Ig % inh @ 50 μM (50 μM compound): 0%

NCCCCC(C(=O)O)N(CC=Cc1cccs1)CC=Cc1cccs1 (stereo not shown) [cpd 50]
EPO/EBP-Ig % inh @ 50 μM (Table 3, 50 μM): −6%

Cc1ccc(C(=O)Nc2cccc(CN(Cc3cccc(NC(=O)c4ccc(C)cc4)c3)C(CC(=O)O)C(=O)O)c2)cc1 (stereo not shown) [cpd 64, N,N-bis(3-(4-Methylbenzoyl)aminobenzyl)Asp-OH]
EPO/EBP-Ig % inh @ 50 μM (Table 4, 50 μM): −4%

COC(=O)C(CCC(=O)OC(C)(C)C)N(CC=Cc1cccc(Oc2ccccc2)c1)CC=Cc1cccc(Oc2ccccc2)c1 (stereo not shown) [cpd 96, N,N-bis(3-Phenoxycinnamyl)Glu(O-t-Bu)-OMe]
EPO/EBP-Ig % inh @ 50 μM (Table 6, 50 μM): −5%

CC(C)(C)OC(=O)CC(C(=O)OC(C)(C)C)N(CC=Cc1cccc(Oc2ccccc2)c1)CC=Cc1cccc(Oc2ccccc2)c1 (stereo not shown) [cpd 106, N,N-bis(3-Phenoxycinnamyl)Asp(O-t-Bu)-O-t-Bu]
EPO/EBP-Ig % inh @ 50 μM (Table 6, 50 μM): 20%

O=C(O)CC(C(=O)O)N(CC=Cc1cccc(Oc2ccccc2)c1)CC=Cc1cccc(Oc2ccccc2)c1 (stereo not shown) [cpd 107, N,N-bis(3-Phenoxycinnamyl)Asp-OH]
IC30 μM (Inhibition of EPO binding to EBP-Ig) (0.5 nM [125I]EPO): 30 µM | % inh @ 50 μM (Inhibition of EPO binding to EBP-Ig) (0.5 nM [125I]EPO): 78% | EPO/EBP-Ig % inh @ 50 μM (Table 6, 50 μM): 78%

COC(=O)C(CCCCNC(=O)OC(C)(C)C)N(Cc1ccc(OCc2ccccc2)cc1)Cc1ccc(OCc2ccccc2)cc1 (stereo not shown) [cpd 111, N,N-bis(4-Benzyloxybenzyl)Lys(Boc)-OMe]
EPO/EBP-Ig % inh @ 50 μM (Table 7, 50 μM): 5%

COC(=O)C(CCCCNC(=O)OC(C)(C)C)N(Cc1ccc(OCc2ccccc2)cc1)Cc1cccc([N+](=O)[O-])c1 (stereo not shown) [cpd 113, N-(4-Benzyloxybenzyl)-N-(3-nitrobenzyl)Lys(Boc)-OMe]
EPO/EBP-Ig % inh @ 50 μM (Table 7, 50 μM): 24%

COC(=O)C(CCCCN)N(Cc1ccc(OCc2ccccc2)cc1)Cc1cccc(NC(=O)c2ccco2)c1 (stereo not shown) [cpd 117, N-(4-Benzyloxybenzyl)-N-(3-((2-furancarbonyl)amino)benzyl)Lys-OMe]
% inh @ 50 μM (Inhibition of EPO binding to EBP-Ig) (0.5 nM [125I]EPO): 34% | EPO/EBP-Ig % inh @ 50 μM (Table 7, 50 μM): 34%

CC(C)(C)OC(=O)CCC(C(=O)NCCOCCOCCNC(=O)C(CCC(=O)OC(C)(C)C)N(Cc1ccc(OCc2ccccc2)cc1)Cc1ccc(OCc2ccccc2)cc1)N(Cc1ccc(OCc2ccccc2)cc1)Cc1ccc(OCc2ccccc2)cc1 (stereo not shown) [cpd 245, [N,N-bis(4-Benzyloxybenzyl)Glu(O-t-Bu)-NHCH2CH2OCH2]2]
EPO/EBP-Ig % inh @ 50 μM (Table 11, 50 μM): 0%

O=C(O)CCC(C(=O)NCCOCCOCCNC(=O)C(CCC(=O)O)N(Cc1ccc(OCc2ccccc2)cc1)Cc1ccc(OCc2ccccc2)cc1)N(Cc1ccc(OCc2ccccc2)cc1)Cc1ccc(OCc2ccccc2)cc1 (stereo not shown) [cpd 246, [N,N-bis(4-Benzyloxybenzyl)GluNHCH2CH2OCH2]2]
IC30 μM (Inhibition of EPO binding to EBP-Ig) (0.5 nM [125I]EPO): 10 µM | inhibition at 50 µM [1]: 79% | inhibition at 50 µM [2]: 79%

CCCCC(=O)Nc1cccc(CN(Cc2cccc(Oc3ccccc3)c2)C(CCC(=O)O)C(=O)NCCOCCOCCNC(=O)C(CCC(=O)O)N(Cc2cccc(NC(=O)CCCC)c2)Cc2cccc(Oc3ccccc3)c2)c1 (stereo not shown) [cpd 247, [N-(3-Phenoxybenzyl)-N-(3-(pentanoylamino)benzyl)-Glu-NHCH2CH2OCH2]2]
IC50: 18 µM | IC30 μM (Inhibition of EPO binding to EBP-Ig) (0.5 nM [125I]EPO): 7 µM | inhibition at 50 µM [1]: 47% | inhibition at 50 µM [2]: 47%

COC(=O)C(COC(C)(C)C)N(CC=Cc1cccc(Oc2ccccc2)c1)CC=Cc1cccc(Oc2ccccc2)c1 (stereo not shown) [cpd 290, N,N-bis(3-Phenoxycinnamyl)Ser(t-Bu)-OMe]
EPO/EBP-Ig % inh @ 50 μM (50 μM compound, Table 16A): 0%

O=C(O)[C@H](CO)N(C/C=C/c1cccc(Oc2ccccc2)c1)C/C=C/c1cccc(Oc2ccccc2)c1 [cpd 300, N,N-Bis(3-phenoxycinnamyl)Ser-OH]
IC50: 145 µM | IC30 μM (Inhibition of EPO binding to EBP-Ig) (0.5 nM [125I]EPO): 35 µM | inhibition at 50 µM [1]: 57% | inhibition at 50 µM (read-out: EPO/EBP-Ig % inh @ 50 μM, 50 μM compound, Table 16A): 57%

COC(=O)C(CCC(=O)O)NCC=Cc1cccc(Oc2ccccc2)c1 (stereo not shown) [cpd 325, N-(3-Phenoxycinnamyl)Glu-OMe]
EPO/EBP-Ig % inh @ 50 μM (50 μM compound, Table 19A): 6%

O=C(O)CCC(NCC=Cc1cccc(Oc2ccccc2)c1)C(=O)O (stereo not shown) [cpd 326, N-(3-Phenoxycinnamyl)Glu-OH]
EPO/EBP-Ig % inh @ 50 μM (50 μM compound, Table 19A): 0%

COC(=O)C(CCC(=O)OC(C)(C)C)NCC=Cc1cccc(Oc2ccccc2)c1 (stereo not shown) [cpd 334, N-(3-phenoxycinnamyl)Glu(O-t-Bu)-OMe]
EPO/EBP-Ig % inh @ 50 μM (50 μM compound, Table 19A): 6%

CC(C)(C)OC(=O)CCC(NCC=Cc1cccc(Oc2ccccc2)c1)C(=O)O (stereo not shown) [cpd 337, N-(3-Phenoxycinnamyl)Glu(O-t-Bu)-OH]
EPO/EBP-Ig % inh @ 50 μM (50 μM compound, Table 19A): 0%

COC(=O)[C@H](CO)NCC=Cc1cccc(Oc2ccccc2)c1 [cpd 346, N-(3-Phenoxycinnamyl)Ser-OMe]
EPO/EBP-Ig % inh @ 50 μM (50 μM compound, Table 20A): 28%

O=C(O)C(CO)NCC=Cc1cccc(Oc2ccccc2)c1 (stereo not shown) [cpd 347, N-(3-phenoxycinnamyl)Ser-OH]
EPO/EBP-Ig % inh @ 50 μM (50 μM compound, Table 20A): 23%

COC(=O)C(COC(C)(C)C)NCC=Cc1cccc(Oc2ccccc2)c1 (stereo not shown) [cpd 352, N-(3-phenoxycinnamyl)Ser(t-Bu)-OMe]
EPO/EBP-Ig % inh @ 50 μM (50 μM compound, Table 20A): 8%
